Active and inactive are the calls of the source. No rule for the calls is given here.
Biological target: Influenza A virus M2 proton channel (A/TW/4845/1999 H1N1)
Assay: M2 proton channel binding, NMR based, influenza A virus H1N1 strain (AID 1549)
Conditions: NMR binding screen, M2 protein

| Compound | Kd |
| --- | --- |
| C=C1C(=O)O[C@@H]2C3OC3(C)CC/C=C(\C)CC[C@@H]12 (stereo partly drawn) | > 4 mM (inactive) |
| O=S(=O)(Cc1ccccc1Cl)Nc1ccccn1 | > 4 mM (inactive) |
| O=C(O)Cn1cc(C(F)(F)F)ccc1=O | > 4 mM (inactive) |
| C[C@@H]1CC[C@@]23CCC4(C)[C@@](C=CC5[C@@]6(C)CC[C@H](O)C(C)(C)C6CC[C@]54C)(OC2=O)C3[C@H]1C (stereo partly drawn) | > 4 mM (inactive) |
| CCOC(=O)CNc1ncnc2c1nnn2CC | > 4 mM (inactive) |
| Cc1nnc(N2CCN(c3ccccc3)CC2)[nH]c1=O | > 4 mM (inactive) |
| COc1ccc(C(C)=O)c(OC)c1 | > 4 mM (inactive) |
| CCC(=O)Nc1ccc(-c2nn3c(C)nnc3s2)cc1 | > 4 mM (inactive) |
| Cn1nnc2c(N3CCC(C(N)=O)CC3)ncnc21 | > 4 mM (inactive) |
| COc1cc(C)c(S(=O)(=O)N2CCN(C)CC2)cc1C | > 4 mM (inactive) |
| NC12CC3CC(C1)CC(CC(=O)O)(C3)C2 | > 4 mM (inactive) |
| S=C(Cc1cccnc1)N1CCOCC1 | > 4 mM (inactive) |
| OCc1ccccc1CN1CCOCC1 | > 4 mM (inactive) |
| CN1C(=O)Cc2cc(S(N)(=O)=O)ccc21 | > 4 mM (inactive) |
| Nc1ccc(S(=O)(=O)N2CCOCC2)cc1 | > 4 mM (inactive) |
| CC(=O)Nc1ccc(NC(=O)N2CCOCC2)cc1 | > 4 mM (inactive) |
| Cc1ccc(C(=O)Nc2c[nH]c(=O)[nH]c2=O)cc1 | > 4 mM (inactive) |
| COc1ccc2nc(SCC(N)=O)[nH]c2c1 | > 4 mM (inactive) |
| CC(=O)Nc1ccc(NC(=O)/C=C\C(=O)O)cc1 | > 4 mM (inactive) |
| S=C(Nc1ccccc1)Nc1nncs1 | > 4 mM (inactive) |
| Cc1cc(C)n(CCC(=O)O)n1 | > 4 mM (inactive) |

| Compound | Kd |
| --- | --- |
| C=C[C@H]1CN2CC[C@H]1C[C@@H]2[C@H](O)c1ccnc2ccccc12 | > 4 mM (inactive) |
| O=C(O)/C=C1\NC(=O)c2ccccc21 | > 4 mM (inactive) |
| COc1cc(O)c2c(=O)cc(-c3ccc(OC)c(-c4c(O)cc(O)c5c(=O)cc(-c6ccc(O)cc6)oc45)c3)oc2c1 | > 4 mM (inactive) |
| CNC(=O)C(=O)Nc1ccc(C)c(C)c1 | > 4 mM (inactive) |
| COC(=O)[C@@H]1OC(=O)C2OC23[C@@]1(C)CCC1[C@]2(C)C(C[C@@H](O)[C@]13C)C(C)(C)[C@H](OC(C)=O)C[C@@H]2OC(C)=O (stereo partly drawn) | > 4 mM (inactive) |
| Cc1cc(C(=O)Nc2ccc3c(c2)OCO3)cs1 | > 4 mM (inactive) |
| O=c1ccc2cc(O[C@@H]3O[C@H](CO)[C@@H](O)[C@H](O)[C@H]3O)c(O)cc2o1 | > 4 mM (inactive) |
| COC(=O)C1Cc2ccccc2N1 (stereo not drawn) | > 4 mM (inactive) |
| CC1=NN2C(=N)CC(=O)N=C2S1 | > 4 mM (inactive) |
| O=C1CCCN1C(=O)c1ccc(F)cc1 | > 4 mM (inactive) |
| Cn1cnc2c(cnn2-c2ccccc2)c1=O | > 4 mM (inactive) |
| NC(=O)c1ccc(C(N)=O)cc1 | > 4 mM (inactive) |
| Cc1ccc(-c2c(C)n([O-])c3c([n+]2=O)CCCC3)o1 | > 4 mM (inactive) |
| CC(=O)Nc1nc2c(s1)C(=O)NCCC2 | > 4 mM (inactive) |
| O=C(NCc1cccs1)c1ccncc1 | > 4 mM (inactive) |
| O=C(Nc1ccc2c(c1)CCC2)c1cnccn1 | > 4 mM (inactive) |
| Cc1cc(C(=O)Nc2ccon2)cs1 | > 4 mM (inactive) |
| NCc1ccc2c(c1)CCO2 | > 4 mM (inactive) |
| Cc1cc(N)n(C2CCOC(C)(C)C2)n1 (stereo not drawn) | > 4 mM (inactive) |
| CC(=O)O[C@H]1C[C@@]2(C)[C@@H](C[C@@H](O)C3[C@]2(C)CC[C@H]2[C@H](C)[C@H](O)CC[C@]32C)/C1=C(/CCC=C(C)C)C(=O)O (stereo partly drawn) | > 4 mM (inactive) |
| O=C(Nc1ncccn1)c1cccc(F)c1 | > 4 mM (inactive) |

| Compound | Kd |
| --- | --- |
| NCC(N)C(=O)c1ccccc1 (stereo not drawn) | > 4 mM (inactive) |
| CC(=O)O[C@H]1C[C@@H](OC(C)=O)C(C)(C)C2CC(=O)[C@]3(C)C(CC[C@@]4(C)[C@H](C(=O)O)OC(=O)C5OC543)[C@]21C (stereo partly drawn) | > 4 mM (inactive) |
| CC(=O)Nc1ccc(N2CCOCC2)cc1 | > 4 mM (inactive) |
| O=C(NCC1CCCCC1)c1ccco1 | > 4 mM (inactive) |
| CC(=O)c1cccc(NS(=O)(=O)N(C)C)c1 | > 4 mM (inactive) |
| Cc1ccc2c(c1)CCCN2C(=O)c1ccncc1 | > 4 mM (inactive) |
| O=C(Nc1ccon1)c1csc2c1CCCC2 | > 4 mM (inactive) |
| O=C(O)CCCc1nc2ccccc2s1 | > 4 mM (inactive) |
| CC(=O)NN1C(=O)/C(=C\c2ccc(O)cc2)SC1=S | > 4 mM (inactive) |
| Cc1cc(C)n2nc(C(=O)Nc3cccnc3)nc2n1 | > 4 mM (inactive) |
| Cc1ccc(OCC(=O)n2cnnc2N)c(C)c1 | > 4 mM (inactive) |
| Cc1sc(N)c(C(N)=O)c1C | > 4 mM (inactive) |
| CS(=O)(=O)CCCCN=C=S | > 4 mM (inactive) |
| [O-][n+]1onc2c1CCc1c-2nc(-c2ccccc2)n1O | > 4 mM (inactive) |
| CCOCC(=O)NCc1n[nH]c(=O)c2ccccc12 | > 4 mM (inactive) |
| O=C(Nc1ccc2c(c1)OCO2)c1cnn2cccnc12 | > 4 mM (inactive) |
| NCc1ccc2c(c1)OCCO2 | > 4 mM (inactive) |
| COc1ccc(-c2cc(=O)c3c(O)cc(O)c(-c4cc(-c5cc(=O)c6c(O)cc(O)cc6o5)ccc4OC)c3o2)cc1 | > 4 mM (inactive) |
| O=C(CC1SC(=O)NC1=O)Nc1ccccc1 (stereo not drawn) | > 4 mM (inactive) |
| CC1CCN(C(=O)c2ccc3c(c2)OCCO3)CC1 | > 4 mM (inactive) |
| CC1(C)C(=O)C=C[C@@]2(C)C1=C(O)C(=O)[C@]1(C)C2CC[C@@]2(C)[C@H](c3ccoc3)C[C@H]3O[C@]321 (stereo partly drawn) | > 4 mM (inactive) |

| Compound | Kd |
| --- | --- |
| C=C1C[C@]23C[C@@]1(O)CC[C@H]2[C@@]12C=C[C@H](O)C(C)(C(=O)O1)[C@H]2[C@@H]3C(=O)O | > 4 mM (inactive) |
| CN(C)C(=O)CSc1nc2ccccc2c(=O)[nH]1 | > 4 mM (inactive) |
| COc1ccc(C2CC(=O)NN2)cc1OC1CCCC1 (stereo not drawn) | > 4 mM (inactive) |
| Cc1csc2nc(N)nn12 | > 4 mM (inactive) |
| CCOC(=O)C1CCN(c2ccc(C#N)cc2)CC1 | > 4 mM (inactive) |
| CC(C)=CC1C(CO)C1(C)C (stereo not drawn) | > 4 mM (inactive) |
| Cc1ccc(C(=O)NCCO)c(Cl)c1 | > 4 mM (inactive) |
| O=C(NCc1ccccc1Cl)c1cnn2cccnc12 | > 4 mM (inactive) |
| COC(=O)c1[nH]c2ccccc2c1C(=O)OC | > 4 mM (inactive) |
| COc1c2ccoc2cc2oc(C)cc(=O)c12 | > 4 mM (inactive) |
| N/C(=N/O)C1COc2ccccc2O1 (stereo not drawn) | > 4 mM (inactive) |
| CCCNC(CC(=O)Nc1cccnc1)C(=O)O (stereo not drawn) | > 4 mM (inactive) |
| CC1CN=C(Nc2ccccc2)S1 (stereo not drawn) | > 4 mM (inactive) |
| Cc1ccccc1NC(=O)/C=C\C(N)=O | > 4 mM (inactive) |
| CN1C(=O)C2CC=C(Cl)CC2C1=O (stereo not drawn) | > 4 mM (inactive) |
| COc1ccc(-c2coc3c(OC)c(OC)cc(O)c3c2=O)cc1 | > 4 mM (inactive) |
| O=c1cc(O)nc(SCc2ccccc2)[nH]1 | > 4 mM (inactive) |
| Nc1cccc(-c2cnco2)c1 | > 4 mM (inactive) |
| COc1ccc(C2NC(C(=O)O)CS2)cc1 (stereo not drawn) | > 4 mM (inactive) |
| Oc1ccc2nonc2c1 | > 4 mM (inactive) |

— PubChem BioAssay AID1549 (Sanford-Burnham Center for Chemical Genomics, 2009)
